Results reported in patent US8834858B2, “Treatment for dyslipidemia” (Solvotrin Therapeutics Ltd., priority 2011, dated 2014).
“Also recorded” adds a separate entry of the source. Read-outs that look alike come from different tables or passages of the source.

Assays:
[1] = Incubation with mouse intestinal preparation; assay type: in vitro ADME
[2] = Incubation with microsomes from the human intestinal wall; assay type: in vitro ADME
Procedure: FIG. 7 depicts a progress curve following incubation of ST0702 in the presence of microsomes from the human intestinal wall.
(§1) Hydrolysis kinetics of isosorbide diaspirinate,” Eur. J. Pharm. Sciences 16 2002 297-304.

[3] = Hydrolysis of ST0702 in 50% human plasma; assay type: in vitro ADME; details: 50% human plasma diluted with pH 7.4 buffer, 37° C.
Procedure: FIG. 1 depicts a progress curve for the disappearance of isosorbide-2-aspirinate-5-nicotinate (ST0702) following incubation (in vitro) in 50% human plasma diluted with pH 7.4 buffer at 37° C.
A Waters Spherisorb® (4 μm) C18 3.9×250 mm column was used for the plasma and enzyme study samples. The enzyme and plasma study samples were analysed using a gradient method employing a mobile phase consisting of pH 3.19 phosphate buffer:acetonitrile 90:10 grading to 10:90 over the first ten minutes then back to 65:35 to 12 minutes and grading to 90:10 to 17 minutes at which it was held to 30 minutes. The eluent in both methods was monitored at 230 nm and peak identity and homogeneity confirmed by PDA analysis. Quantitation was performed by comparison of peak areas with external standards run under the same conditions at about the same concentration. The flow rate was 1 ml/min.
For the hydrolysis experiments pooled plasma or serum solutions (4 ml) were prepared by centrifugation of citrated human venous blood and dilution with pH 7.4 phosphate buffer as appropriate. Whole blood was used undiluted. […] 20 μl aliquots of the supernatant were analysed by HPLC. Hydrolysis was monitored until consumption of the parent ester. […] Cholinesterase activity of plasma, serum and whole blood was evaluated using the Ellman approach with butyryl thiocholine as substrate. […]

[4] = tested on: LDL cholesterol, Apolipoprotein B, TGs; test: NHP crossover study: clinical chemistry (LDL-C, ApoB, TG); details: for increase in TG levels (non-significant) / reduction from baseline in LDL cholesterol / reduction from baseline in apolipoprotein B: baseline to 48 hours; for reduction from baseline in LDL cholesterol / reduction from baseline in apolipoprotein B: 28 mg/kg niacin equivalents daily oral gavage, n=6
Procedure: (§3) The primary study endpoint is change in plasma LDL cholesterol and Apolipoprotein B at 48 hours. An aliquot of 300 μL of serum transferred to a cryovial and was immediately placed in a freezer set to maintain −70° C. until analyzed for clinical chemistry (LDL cholesterol, Apolipoprotein B, TGs, glucose) using a standard Roche Analyser.

thromboxane B2 (TxB2) = test: NHP crossover study: ex-vivo serum TxB2; assay type: in vivo, cynomolgus monkeys
Procedure: (§2) For TxB2, an additional 0.4 mL whole blood aliquots were placed in siliconised glass tubes to induce a clotting response and the supernatants were analysed for TxB2 using a Luminex ELISA immunoassay. PGD2 was analysed from serum directly using a Luminex ELISA immunoassay.

[5] = Incubation in diluted human intestinal contents; assay type: in vitro ADME; details: prolonged period
Excerpt: as §1

[6] = Incubation with rabbit intestinal preparation; assay type: in vitro ADME
[7] = Incubation in human gastric juice; assay type: in vitro ADME; details: over 60 minutes
Excerpt: as §1

[8] = pH 7.4
Procedure: Microsomes from human hepatocytes (post mortem tissue) were diluted with pH 7.4 buffer and the suspension warmed to 37° C. ST0702 was introduced and samples withdrawn at successive time intervals.
Hydrolysis kinetics of isosorbide diaspirinate,” Eur. J. Pharm.

[9] = Stomach irritation on administration of compound I; assay type: in vivo; details: statement in description; test not named
Procedure: Therefore, stomach irritation is not observed with the administration of isosorbide-2-acetylsalicylate-5-nicotinic acid (I). […] In some embodiments, the present invention provides a composition comprising isosorbide-2-acetylsalicylate-5-nicotinic acid (I) wherein the composition protects the gastrointestinal mucosa from irritation and inflammation.
Ulcerogenic effects of aspirin and aspirin pro-drugs ST0701, ST0702, and ST0703 were determined in rabbits using the following procedure. Healthy female rabbits (n=2 per group) were dosed (by oral gavage) for 3 consecutive days with 30 mg/kg of aspirin or the molar equivalent of ST0702 and the other pro drugs. Four hours post-dose on the final day, the rabbits were euthanized using an overdose of pentobarbitone and their stomachs and small intestine removed, washed with physiological saline, opened along the greater curvature and examined. The area (square millimeters) of both non-haemorrhagic and haemorrhagic lesions developed in the stomach/intestines were measured with a square grid under a dissecting microscope.

prostaglandin D2 (PGD2) = test: NHP crossover study: serum PGD2; assay type: in vivo, cynomolgus monkeys; details: for PGD2 AUC: over 24 hours post dosing, equimolar doses
Procedure: as §2

[10] = Incubation with pig intestinal S9 fraction; assay type: in vitro ADME
Procedure: FIG. 2 depicts a progress curve for the disappearance of ST0702 following incubation with pig intestinal S9 fraction.
as §1

[11] = Incubation with rat intestinal preparation; assay type: in vitro ADME
serum glucose = test: NHP crossover study: serum glucose; details: for serum glucose change from baseline: 1 hour post dose
Procedure: as §3

[12] = cited from earlier work
[13] = cited from earlier work; remark: listed apart in the source
[14] = cited from earlier work; remark: listed apart in the source
[15] = secondary prevention; cited from earlier work
[16] = crystalline nicotinic acid (>1 g), cited from earlier work
[17] = 8 and 14 months, on statin therapy; cited from earlier work
[18] = tested on: LDL cholesterol, HDL cholesterol, TG; details: adult dyslipidemias; cited from earlier work
blood glucose = details: cited from earlier work; for patients with diabetes requiring a change in hypoglycemic therapy: in vivo
PGD2 receptor-1 (DP1) = PGD2 receptor-1 (DP1) (Homo sapiens, UniProt Q13258); details: nicotinic acid without vs with added laropiprant (Kush 2009); cited from earlier work
Sequence of PGD2 receptor-1 (DP1) (Q13258 whole entry): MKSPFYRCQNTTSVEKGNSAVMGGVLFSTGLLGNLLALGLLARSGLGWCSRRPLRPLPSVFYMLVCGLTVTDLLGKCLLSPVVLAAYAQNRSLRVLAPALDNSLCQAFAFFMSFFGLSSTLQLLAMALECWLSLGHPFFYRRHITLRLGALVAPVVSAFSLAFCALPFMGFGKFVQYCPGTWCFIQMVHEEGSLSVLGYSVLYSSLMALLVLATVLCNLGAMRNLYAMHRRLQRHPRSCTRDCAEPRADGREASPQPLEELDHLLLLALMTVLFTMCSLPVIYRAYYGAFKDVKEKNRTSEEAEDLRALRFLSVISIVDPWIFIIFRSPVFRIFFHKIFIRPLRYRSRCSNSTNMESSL

LDL, HDL = details: cited from earlier work

CC(=O)Oc1ccccc1C(=O)O[C@H]1CO[C@H]2[C@@H]1OC[C@H]2OC(=O)c1cccnc1 [ST0702, isosorbide-2-aspirinate-5-nicotinate]
aspirin production from ST0702 [1]: do not produce aspirin
hydrolysis pattern in human intestinal wall microsomes [2]: hydrolysis predominantly at the isosorbide-2-position liberating aspirin and isosorbide-5-nicotinate
disappearance of ST0702 / conversion to hydrolysis products [3]: rapid conversion to a series of hydrolysis products
TG levels at 48 hours (follow up) [4]: 55 ± 24 mg/dL
TG levels at baseline [4]: 59 ± 29 mg/dL
increase in TG levels (non-significant) [4]: 4.4%
reduction from baseline in LDL cholesterol [4]: 53%
reduction from baseline in apolipoprotein B [4]: 42%
serum TxB2 suppression (thromboxane B2 (TxB2); at 24 and 48 hours): > 95%
serum TxB2 levels (thromboxane B2 (TxB2); from 15 minutes on, within group and vs niacin): significantly reduced
stability in human intestinal contents [5]: effectively unchanged
aspirin production from ST0702 [6]: do not produce aspirin
metabolism in human gastric juice [7]: not metabolized
hydrolysis pattern in human liver microsomes [8]: more significant direct hydrolysis at position 5 leading to direct nicotinic acid production
stomach irritation [9]: not observed
reduction in PGD2 AUC levels compared to nicotinic acid (prostaglandin D2 (PGD2); over 24 hours): 8 fold
PGD2 AUC (prostaglandin D2 (PGD2)): 16.2 ± 6.4 ng·h/mL
aspirin production from ST0702 [10]: do not produce aspirin
aspirin production from ST0702 [11]: do not produce aspirin
serum glucose change from baseline (serum glucose): significant decrease
plasma glucose versus baseline (serum glucose; 4 hours post dose): remained below baseline levels; also recorded: significant reduction

O=C(O)c1cccnc1 [nicotinic acid]
TG levels at 48 hours (follow up) [4]: 64 ± 31 mg/dL
TG levels at baseline [4]: 50 ± 10 mg/dL
increase in TG levels (non-significant) [4]: 23.3%
reduction from baseline in LDL cholesterol [4]: 33%
reduction from baseline in apolipoprotein B [4]: 24%
HDL increase ([12]; 1,000 mg once daily added to simvastatin): 21%
carotid intima-media thickness (CIMT) ([12]; after 12 months): unchanged
patients discontinuing treatment because of flushing ([13]; Jacobson 2010): 5-20%
users experiencing mild or moderate flushing ([13]; review of clinical trials): > 60%
reduction of incidence of non-fatal re-infarction / risk of myocardial infarction ([14]; five year follow up, men with history of MI): 27%
decrease in all-cause (long-term) mortality ([14]; mean follow-up of 15 years): 11%
coronary artery revascularization, non-fatal MI, stroke and TIA [15]: significant reduction
half life ([16]; oral): about 60 minutes
time to peak plasma concentrations ([16]; oral): 30 to 60 min
oral absorption [16]: almost completely absorbed
CIMT [17]: significant reduction
PGD2 AUC (prostaglandin D2 (PGD2)): 128.3 ± 38.2 ng·h/mL
HDL cholesterol [18]: +15 to +35%
LDL cholesterol [18]: −5 to −25%
TG [18]: −20 to −50%
increase in fingerstick glucose levels (blood glucose; doses <2.5 g): 4% to 5
patients with diabetes requiring a change in hypoglycemic therapy (blood glucose): 10-35%
patients with diabetes requiring a change in hypoglycemic therapy (blood glucose; listed as Nicotinic acid): 10% to 35
rate of moderate/severe flushing (PGD2 receptor-1 (DP1)): 50%
additional lowering of LDL levels (LDL, HDL; 1 g/day added to stable statin): 8%
additional raise of HDL levels (LDL, HDL; 1 g/day added to stable statin): 24%
additional lowering of LDL (LDL, HDL; 2 g/day added to stable statin): 20%
additional raise of HDL cholesterol levels (LDL, HDL; 2 g/day added to stable statin): 27%
serum glucose change from baseline (serum glucose): significant decrease
serum glucose after feeding (serum glucose; following animal feeding between 1-2 hours post dose): rebound to baseline levels
